Assay results as given in paper PMC5391474, “Investigation of the Role of Protein Kinase D in Human Rhinovirus Replication” (Journal of Virology, 2017).

Experiments:
Test in all cases: biochemical
Parameters in all cases: in vitro kinase selectivity panel, protein and lipid kinases, single concentration, ATP at Km
Conditions in all cases: ATP at Km
[1] = target: T1, Yes(h) (Homo sapiens, UniProt P07947)
T1 construct: gene YES1
How it was run: (§1)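 Single-point screen against a protein and lipid kinase panel: inhibitor at 1 μM. ATP concentration for every kinase equivalent to its Km.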

[2] = target: T2, MAPK2(h) (Homo sapiens, UniProt P28482)
T2 construct: gene MAPK1
How it was run: as §1

[3] = target: EphB4(h) (Homo sapiens, UniProt P54760)
EphB4(h), sequence (P54760 whole entry): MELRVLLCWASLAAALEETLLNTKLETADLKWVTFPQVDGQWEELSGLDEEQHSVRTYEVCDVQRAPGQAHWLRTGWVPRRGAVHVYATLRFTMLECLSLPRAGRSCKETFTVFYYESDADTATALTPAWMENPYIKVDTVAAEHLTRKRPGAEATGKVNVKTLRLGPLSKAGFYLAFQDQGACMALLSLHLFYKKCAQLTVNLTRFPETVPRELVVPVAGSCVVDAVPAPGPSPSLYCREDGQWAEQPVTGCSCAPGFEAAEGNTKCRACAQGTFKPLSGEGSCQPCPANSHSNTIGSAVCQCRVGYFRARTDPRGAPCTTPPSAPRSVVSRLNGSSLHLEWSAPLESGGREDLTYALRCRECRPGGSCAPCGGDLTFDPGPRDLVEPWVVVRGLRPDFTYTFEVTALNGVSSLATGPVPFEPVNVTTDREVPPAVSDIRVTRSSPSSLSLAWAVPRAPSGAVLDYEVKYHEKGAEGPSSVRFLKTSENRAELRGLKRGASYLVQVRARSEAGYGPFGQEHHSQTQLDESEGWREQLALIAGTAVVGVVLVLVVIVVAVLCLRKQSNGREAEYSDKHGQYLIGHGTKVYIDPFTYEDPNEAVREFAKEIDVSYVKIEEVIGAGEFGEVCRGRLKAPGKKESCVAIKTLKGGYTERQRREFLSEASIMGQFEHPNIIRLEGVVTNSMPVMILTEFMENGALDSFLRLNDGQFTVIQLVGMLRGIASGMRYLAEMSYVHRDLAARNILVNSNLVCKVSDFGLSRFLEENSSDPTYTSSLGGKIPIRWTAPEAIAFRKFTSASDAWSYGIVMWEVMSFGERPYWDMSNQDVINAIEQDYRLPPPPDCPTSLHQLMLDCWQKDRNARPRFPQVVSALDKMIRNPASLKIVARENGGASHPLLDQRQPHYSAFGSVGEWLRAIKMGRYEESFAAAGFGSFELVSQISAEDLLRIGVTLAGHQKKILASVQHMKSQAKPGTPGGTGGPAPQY
How it was run: as §1

[4] = target: Flt4(h) (Homo sapiens, UniProt P35916)
Flt4(h), sequence (P35916 whole entry): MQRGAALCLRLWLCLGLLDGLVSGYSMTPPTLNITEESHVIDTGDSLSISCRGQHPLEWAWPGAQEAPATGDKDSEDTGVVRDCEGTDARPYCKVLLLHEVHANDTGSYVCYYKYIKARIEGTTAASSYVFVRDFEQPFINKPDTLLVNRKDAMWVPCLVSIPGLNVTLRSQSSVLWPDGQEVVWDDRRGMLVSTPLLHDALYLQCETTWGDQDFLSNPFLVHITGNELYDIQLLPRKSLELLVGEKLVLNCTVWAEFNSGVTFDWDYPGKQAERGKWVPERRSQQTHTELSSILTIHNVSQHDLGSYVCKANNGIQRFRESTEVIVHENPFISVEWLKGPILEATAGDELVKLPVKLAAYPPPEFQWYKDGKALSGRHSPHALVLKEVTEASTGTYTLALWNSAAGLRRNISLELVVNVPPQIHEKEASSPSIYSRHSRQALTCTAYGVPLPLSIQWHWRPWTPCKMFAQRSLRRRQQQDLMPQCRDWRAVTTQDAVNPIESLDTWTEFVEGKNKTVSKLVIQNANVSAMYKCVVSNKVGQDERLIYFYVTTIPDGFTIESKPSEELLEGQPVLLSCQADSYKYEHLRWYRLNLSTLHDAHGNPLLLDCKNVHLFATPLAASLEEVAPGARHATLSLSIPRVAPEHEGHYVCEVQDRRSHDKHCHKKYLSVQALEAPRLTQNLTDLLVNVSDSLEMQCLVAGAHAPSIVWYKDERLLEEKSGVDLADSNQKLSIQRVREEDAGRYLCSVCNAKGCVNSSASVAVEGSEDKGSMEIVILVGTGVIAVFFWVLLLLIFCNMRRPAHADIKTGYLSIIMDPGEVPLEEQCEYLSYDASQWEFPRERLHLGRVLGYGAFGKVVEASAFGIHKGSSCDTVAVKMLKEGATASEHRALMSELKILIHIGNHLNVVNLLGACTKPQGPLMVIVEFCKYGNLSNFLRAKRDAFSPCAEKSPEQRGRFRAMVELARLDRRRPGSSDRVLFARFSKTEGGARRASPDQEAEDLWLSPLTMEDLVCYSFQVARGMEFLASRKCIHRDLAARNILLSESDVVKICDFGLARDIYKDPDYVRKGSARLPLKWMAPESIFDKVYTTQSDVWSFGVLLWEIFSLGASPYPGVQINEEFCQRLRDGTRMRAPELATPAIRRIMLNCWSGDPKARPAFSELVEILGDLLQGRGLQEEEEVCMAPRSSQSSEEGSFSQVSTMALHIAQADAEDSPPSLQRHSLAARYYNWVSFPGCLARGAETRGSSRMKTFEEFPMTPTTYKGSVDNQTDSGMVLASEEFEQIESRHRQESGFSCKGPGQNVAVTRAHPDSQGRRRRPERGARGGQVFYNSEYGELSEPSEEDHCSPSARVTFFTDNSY
How it was run: as §1

[5] = target: PIK3CA (Homo sapiens, UniProt P42336)
How it was run: as §1

[6] = target: EGFR(L858R)(h) (Homo sapiens, UniProt P00533, L858R)
How it was run: as §1

[7] = target: T3, ROCK-II(h) (Homo sapiens, UniProt O75116)
T3 construct: gene ROCK2
T3 sequence (O75116 whole entry): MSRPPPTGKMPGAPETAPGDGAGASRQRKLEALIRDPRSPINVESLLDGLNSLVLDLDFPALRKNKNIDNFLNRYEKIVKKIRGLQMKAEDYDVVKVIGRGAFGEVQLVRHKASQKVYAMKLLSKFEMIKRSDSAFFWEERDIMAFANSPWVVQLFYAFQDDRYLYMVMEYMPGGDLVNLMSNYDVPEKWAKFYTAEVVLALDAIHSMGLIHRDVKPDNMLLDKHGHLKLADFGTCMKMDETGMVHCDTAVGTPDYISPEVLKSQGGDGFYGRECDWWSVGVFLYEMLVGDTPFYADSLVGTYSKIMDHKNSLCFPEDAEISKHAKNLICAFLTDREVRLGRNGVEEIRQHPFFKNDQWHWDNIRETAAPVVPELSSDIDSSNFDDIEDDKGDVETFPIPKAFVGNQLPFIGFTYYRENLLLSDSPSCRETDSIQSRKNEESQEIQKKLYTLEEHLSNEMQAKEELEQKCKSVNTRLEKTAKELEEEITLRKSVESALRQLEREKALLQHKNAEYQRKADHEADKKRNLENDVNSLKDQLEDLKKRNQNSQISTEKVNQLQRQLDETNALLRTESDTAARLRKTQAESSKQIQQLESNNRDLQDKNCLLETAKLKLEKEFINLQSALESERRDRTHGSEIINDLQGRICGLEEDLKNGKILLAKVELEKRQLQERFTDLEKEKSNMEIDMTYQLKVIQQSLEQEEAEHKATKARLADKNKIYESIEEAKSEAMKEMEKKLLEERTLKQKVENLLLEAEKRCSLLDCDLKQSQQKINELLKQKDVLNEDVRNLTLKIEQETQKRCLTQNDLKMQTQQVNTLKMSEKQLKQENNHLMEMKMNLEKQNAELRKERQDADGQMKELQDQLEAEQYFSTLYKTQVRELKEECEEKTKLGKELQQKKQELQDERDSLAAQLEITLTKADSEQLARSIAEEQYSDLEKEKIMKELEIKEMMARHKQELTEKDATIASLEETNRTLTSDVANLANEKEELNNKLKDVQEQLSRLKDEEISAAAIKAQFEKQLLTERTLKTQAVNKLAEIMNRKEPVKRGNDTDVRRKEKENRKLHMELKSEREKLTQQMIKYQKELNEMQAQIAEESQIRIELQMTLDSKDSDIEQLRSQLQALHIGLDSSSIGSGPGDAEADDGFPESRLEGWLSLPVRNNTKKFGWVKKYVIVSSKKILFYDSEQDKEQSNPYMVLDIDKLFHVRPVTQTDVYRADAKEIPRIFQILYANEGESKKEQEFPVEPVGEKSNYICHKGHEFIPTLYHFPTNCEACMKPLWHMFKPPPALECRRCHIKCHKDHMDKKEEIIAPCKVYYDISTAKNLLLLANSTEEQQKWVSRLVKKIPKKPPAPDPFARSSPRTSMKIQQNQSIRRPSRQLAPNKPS
How it was run: as §1

[8] = target: T4, IGF-1R(h) (Homo sapiens, UniProt P08069)
T4 construct: gene IGF1R
How it was run: as §1

[9] = target: PIK3CB (Homo sapiens, UniProt P42338)
How it was run: as §1

[10] = target: FGFR1(h) (Homo sapiens, UniProt P11362)
How it was run: as §1

[11] = target: T5, AMPKα1(h) (Homo sapiens, UniProt Q13131)
T5 construct: gene PRKAA1
T5 sequence (Q13131 whole entry): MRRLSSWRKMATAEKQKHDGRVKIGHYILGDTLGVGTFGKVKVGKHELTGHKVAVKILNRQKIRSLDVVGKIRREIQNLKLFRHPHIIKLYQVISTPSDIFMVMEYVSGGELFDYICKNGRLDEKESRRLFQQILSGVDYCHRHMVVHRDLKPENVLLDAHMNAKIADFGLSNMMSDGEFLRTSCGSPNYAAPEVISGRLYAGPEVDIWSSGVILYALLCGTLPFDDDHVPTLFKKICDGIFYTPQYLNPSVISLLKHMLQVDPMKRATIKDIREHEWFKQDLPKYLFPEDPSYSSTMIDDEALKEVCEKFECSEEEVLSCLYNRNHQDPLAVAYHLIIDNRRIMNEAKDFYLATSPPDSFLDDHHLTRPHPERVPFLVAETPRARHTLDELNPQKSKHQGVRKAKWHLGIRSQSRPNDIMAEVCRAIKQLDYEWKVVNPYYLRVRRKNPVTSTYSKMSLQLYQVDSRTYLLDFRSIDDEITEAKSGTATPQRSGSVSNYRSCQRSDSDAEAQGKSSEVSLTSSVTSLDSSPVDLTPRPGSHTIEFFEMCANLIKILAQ
T5 sequence (P54619 whole entry partner): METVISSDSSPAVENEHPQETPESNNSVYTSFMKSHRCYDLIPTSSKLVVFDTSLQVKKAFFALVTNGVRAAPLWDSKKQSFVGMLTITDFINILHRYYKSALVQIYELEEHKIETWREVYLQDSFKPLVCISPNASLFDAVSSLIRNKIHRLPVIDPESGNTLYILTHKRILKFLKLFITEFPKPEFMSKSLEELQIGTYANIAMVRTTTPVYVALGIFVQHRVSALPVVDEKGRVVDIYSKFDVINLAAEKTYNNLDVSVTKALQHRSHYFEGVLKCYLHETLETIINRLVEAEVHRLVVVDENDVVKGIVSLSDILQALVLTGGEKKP
T5 sequence (Q9Y478 whole entry partner): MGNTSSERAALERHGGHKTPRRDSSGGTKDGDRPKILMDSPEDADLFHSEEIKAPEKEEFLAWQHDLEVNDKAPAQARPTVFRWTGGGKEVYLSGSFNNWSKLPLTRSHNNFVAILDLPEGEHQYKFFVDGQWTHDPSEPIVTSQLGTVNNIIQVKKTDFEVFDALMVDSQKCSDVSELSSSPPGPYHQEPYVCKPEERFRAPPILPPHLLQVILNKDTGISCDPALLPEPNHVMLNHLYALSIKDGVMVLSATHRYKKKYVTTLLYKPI
How it was run: as §1

[12] = target: EphA7(h) (Homo sapiens, UniProt Q15375)
How it was run: as §1

[13] = target: DGKB (Homo sapiens, UniProt Q9Y6T7)
How it was run: as §1

[14] = target: T6, PDGFRα(D842V)(h) (Homo sapiens, UniProt P16234, D842V)
T6 construct: gene PDGFRA
How it was run: as §1

[15] = target: T7, CHK2(h) (Homo sapiens, UniProt O96017)
T7 construct: gene CHEK2
How it was run: as §1

[16] = target: T8, TrkB(h) (Homo sapiens, UniProt Q16620)
T8 construct: gene NTRK2
How it was run: as §1

[17] = target: T9, cKit(D816H)(h) (Homo sapiens, UniProt P10721, D816H)
T9 construct: gene KIT
How it was run: as §1

`CC[C@@H](N)CNc1ccnc(-c2cc(-c3cnn(C)c3)ccc2O)n1` [CRT0066101] was tested, and the inhibition at 1 µM [1] was 40%, the inhibition at 1 µM [2] was -9% and the inhibition at 1 µM [3] was 25%. For the same compound, the inhibition at 1 µM [4] was 22%, the inhibition at 1 µM [5] was 1% and the inhibition at 1 µM [6] was -1%. It also gave an inhibition at 1 µM [7] of 28%, an inhibition at 1 µM [8] of -14% and an inhibition at 1 µM [9] of -9%. It also gave an inhibition at 1 µM [10] of -30%, an inhibition at 1 µM [11] of 17% and an inhibition at 1 µM [12] of -9%. The inhibition at 1 µM [13] was -9%, the inhibition at 1 µM [14] was 61% and the inhibition at 1 µM [15] was 26%. It also gave an inhibition at 1 µM [16] of 15% and an inhibition at 1 µM [17] of 51%.
